What all share (type): in vivo
Test [1] deals with Erysiphe cichoracearum. Nature of the test: Cucumber powdery mildew control on sprayed cucumber seedlings (Example 80). Particulars: 100 ppm spray, day before inoculation; for pest or weed control at 100 ppm: Golovinomyces cichoracearum, 168 h. The method, then:
These suspensions were sprayed to the point of run-off, on cucumber seedlings. The following day, the plants were inoculated with a spore suspension of the fungus Erysiphe cichoracearum, causal agent of cucumber powdery mildew, and incubated in a growth room for 7 days. Disease ratings were then made. Treated plants from successful treatments had little or no powdery mildew in contrast to untreated plants which were covered with powdery mildew. Phytotoxicity in the form of growth reduction or hormonal effects was observed on some of the plants in association with disease control.

In test [2] the test system is Helminthosporium maydis. Nature of the test: Southern corn leaf blight control on sprayed corn seedlings (Example 83). Conditions: 100 ppm spray, day before inoculation; for pest or weed control at 100 ppm: Bipolaris maydis, 192 h. The method, then: The compounds of the previous examples were again dissolved in acetone in an amount equal to 6% of the final volume and then suspended at a concentration of 100 ppm in purified water containing 250 ppm of the surfactant TREM 014 (polyhydric alcohol esters). These suspensions were sprayed to the point of run-off on corn seedlings. The following day, the plants were inoculated with a spore suspension of Helminthosporium maydis, causal agent of southern corn leaf blight, and incubated in a saturated humidity chamber at 20° for 24 hours and then in a growth room for an additional 7 days, when disease ratings were made. Treated plants from successful treatments had few or no lesions while the untreated plants had numerous lesions on each leaf. Phytotoxicity expressed as growth reduction was observed on some of the plants in association with disease control.

Test [3] has as its system Cercospora arachidicola. Nature of the test: Peanut early leafspot control on sprayed peanut seedlings (Example 84). Conditions: for pest or weed control at 100 ppm / % Control Peanut Easly Leafspot: 100 ppm spray, day before inoculation. The method, then:
These suspensions were sprayed to the point of run-off on peanut seedlings. The following day, the plants were inoculated with a spore suspension of Cercospora arachidicola, causal agent of peanut early leafspot, and incubated in a saturated humidity chamber at 27° for 24 hours and then in a growth room for an additional 14 days, when disease ratings were made. Treated plants from successful treatments had few or no leafspots while the untreated plants had numerous leafspots.

Test [4] relates to Venturia inaequalis. In words: Apple scab control on sprayed apple seedlings (Example 82). Particulars: 100 ppm spray, day before inoculation; for pest or weed control at 100 ppm: Venturia inaequalis. The method, then: These suspensions were sprayed to the point of run-off on apple seedlings. The following day, the plants were inoculated with a spore suspension of the fungus Venturia inaequalis, causal agent of apple scab, and incubated in a saturated humidity chamber at 20° for 24 hours and then in a growth room for an additional 10-12 days. Treated plants from successful treatments had fewer apple scab lesions when compared to untreated plants which were covered with scab lesions. Phytotoxicity expressed as growth reduction was observed on some of the plants in association with disease control.

In test [5] the test system is Rhizoctonia solani. Nature of the test: Rice sheath blight control on sprayed rice seedlings (Example 87). Particulars: 100 ppm spray, day before inoculation; for pest or weed control at 100 ppm: Rhizoctonia solani, 168 h. The method, then:
The compounds of the previous examples were again dissolved in acetone in an amount equal to 6% of the final volume and then suspended at a concentration of 100 ppm in purified water containing 250 ppm of the surfactant TREM 014 (polyhydric alcohol esters). This suspension was sprayed to the point of run-off on rice seedlings. The following day, the plants were inoculated with a mixture of bran and the mycelium of Rhizoctonia solani, causal agent of sheath blight of rice, and incubated in a growth room for 7 days. Disease ratings were then made. Treated plants from successful treatments had little sheath blight in contrast to untreated plants which were covered with sheath blight.

The subject of test [6] is Phytophthora infestans. In words: whole plant or invertebrate. Conditions: for pest or weed control at 100 ppm: Phytophthora infestans, in Solanum lycopersicum, 168 h, read-out: % Control of Tomato Late Blight, 100 ppm spray, day before inoculation; for % Control of Tomato Late Blight: 100 ppm spray, day before inoculation.
The subject of test [7] is Puccinia recondita var. tritici. Nature of the test: Wheat leaf rust control on sprayed wheat seedlings (Example 79). Particulars: for % Control Wheat Rust / pest or weed control at 100 ppm: 100 ppm spray, day before inoculation. The method, then: The compounds of this invention were dissolved in acetone in an amount equal to 6% of the final volume and then suspended at a concentration of 100 ppm in purified water containing 250 ppm of the surfactant TREM 014 (polyhydric alcohol esters). These suspensions were sprayed to the point of run-off on wheat seedlings. The following day, the plants were inoculated with a spore suspension of Puccinia recondita var. tritici, causal agent of wheat leaf rust, and incubated in a saturated humidity chamber at 20° for 24 hours and then in a growth room for an additional 7 days, when disease ratings were made. Treated plants from successful treatments had few or no rust pustules while the untreated plants had numerous rust pustules on each leaf.

The subject of test [8] is Pyricularia oryzae. In words: whole plant or invertebrate. Particulars: for pest or weed control at 100 ppm: Pyricularia oryzae, 168 h, read-out: % Control of Rice Blast, 100 ppm spray, day before inoculation; for % Control of Rice Blast: 100 ppm spray, day before inoculation.
The mark [9] stands for this setting: Mycosphaerella arachidis, 360 h, read-out: % Control Peanut Easly Leafspot.

Experimental findings from US4510136A (priority 1983, dated 1985) are described below.

Consider `CC(C)(C)c1ccc([Si](C)(C)Cn2cncn2)cc1` [[4-(1,1-Dimethylethyl)phenyl]dimethyl(1H-1,2,4-triazol-1-ylmethyl)silane], for which the pest or weed control at 100 ppm in test [1] was found to be 0%; in test [2], 60%; in test [3] (setting [9]) it was 35%; in test [4], 0%; in test [5], 90%; in test [6] it was 0%. Moreover, in test [8], the pest or weed control at 100 ppm was determined as 90%. In test [7] (Puccinia recondita, 168 h, applied at 200 ppm), this compound registered a pest or weed control at 200 ppm of 80%.
In the case of `C[Si](C)(Cn1cncn1)c1ccc(-c2ccccc2)cc1.O=S(=O)([O-])[O-].[Mn+2]` [(1,1'-Biphenyl-4-yl)dimethyl(1H-1,2,4-triazol-1-ylmethyl)silane, 1:1 complex with manganous sulfate], the “% Control Cucumber Powdery Mildew” value in test [1] turned out to be 90%. Moreover, the “% Control of Southern Corn Leaf Blight” value in test [2] is listed as 100%. Moreover, the “% Control Peanut Easly Leafspot” value in test [3] is recorded as 100%. The “% Control Apple Scab” value in test [4] is 100%. The “% Control of Rice Sheath Blight” value in test [5] stood at 0%. The “% Control of Tomato Late Blight” value in test [6] was found to be 0%. Besides, in test [7], the “% Control Wheat Rust” value is on record as 90%. In test [8], the “% Control of Rice Blast” value is listed as 0%.
Regarding `C[Si](C)(Cn1cncn1)c1cccc(C(F)(F)F)c1` [Dimethyl(1H-1,2,4-triazol-1-ylmethyl)(3-trifluoromethylphenyl)silane], the pest or weed control at 100 ppm came out at 100% in test [1]; 0% in test [2]; 0% in test [3] (setting [9]); 0% in test [4]; 0% in test [5]; 0% in test [6]. Besides, the pest or weed control at 100 ppm in test [7] (Puccinia recondita, 168 h) came to 0%; in test [8], 0%.
As for `C[Si](Cn1cncn1)(c1ccccc1Cl)c1ccccc1Cl` [[bis(2-Chlorophenyl)]methyl(1H-1,2,4-triazol-1-ylmethyl)silane], the pest or weed control at 100 ppm in test [1] amounted to 100%; in test [2], 60%; in test [3] (setting [9]) it was 100%; in test [4], 40%; in test [5], 60%; in test [6], 0%. In addition, the pest or weed control at 100 ppm in test [7] (Puccinia recondita, 168 h) was determined as 100%; in test [8], 90%.
Turning to `C[Si](C)(Cn1cncn1)c1ccc(-c2ccccc2)cc1.[Cl][Cu][Cl]` [(1,1'-Biphenyl-4-yl)dimethyl(1H-1,2,4-triazol-1-ylmethyl)silane, 1:1 complex with cupric chloride], the “% Control Cucumber Powdery Mildew” value in test [1] was 100%. For the same compound, in test [2], the “% Control of Southern Corn Leaf Blight” value is listed as 80%. The “% Control Peanut Easly Leafspot” value in test [3] came to 100%. Besides, the “% Control Apple Scab” value in test [4] is listed as 100%. For the same compound, the “% Control of Rice Sheath Blight” value in test [5] came to 0%. In test [6], the “% Control of Tomato Late Blight” value was determined as 90%. Besides, the “% Control Wheat Rust” value in test [7] was determined as 100%. Further, the “% Control of Rice Blast” value in test [8] was found to be 100%.
On to `Fc1ccc([Si](Cn2cncn2)(O[Si](Cn2cncn2)(c2ccc(F)cc2)c2ccc(F)cc2)c2ccc(F)cc2)cc1` [Oxybis[bis(4-fluorophenyl)(1H-1,2,4-triazol-1-ylmethyl)silane]], for which the pest or weed control at 100 ppm turned out to be 100% in test [1]; 97% in test [2]; 100% in test [4]; 0% in test [5]; 0% in test [6]; 100% in test [7] (Puccinia recondita, 168 h). Besides, the pest or weed control at 100 ppm in test [8] worked out at 50%. The pest or weed control at 20 ppm in test [3] (Mycosphaerella arachidis, 360 h, applied at 20 ppm, read-out: % Control Peanut Easly Leafspot) amounted to 93%.
In the case of `C[Si](Cn1cncn1)(c1ccccc1)c1ccc(Br)cc1` (stereo not shown) [4-Bromophenyl(methyl)phenyl(1H-1,2,4-triazol-1-ylmethyl)silane], the pest or weed control at 100 ppm in test [1] is 100%; in test [2], 80%; in test [3] (setting [9]) it was 100%; in test [4] it was 100%; in test [5], 90%; in test [6], 0%. Besides, the pest or weed control at 100 ppm is 0% in test [7] (Puccinia recondita, 168 h) and 80% in test [8].
Turning to “(1,1'-Biphenyl-4-yl)dimethyl(1H-1,2,4-triazol-1-ylmethyl)silane, 1:1 complex with zinc (II) chloride”, in test [1], the “% Control Cucumber Powdery Mildew” value was 80%. Besides, in test [2], the “% Control of Southern Corn Leaf Blight” value is given as 90%. For the same compound, the “% Control Peanut Easly Leafspot” value in test [3] is on record as 100%. In test [4], the “% Control Apple Scab” value stood at 100%. Also, the “% Control of Rice Sheath Blight” value in test [5] stood at 90%. Also, the “% Control of Tomato Late Blight” value in test [6] worked out at 90%. Further, the “% Control Wheat Rust” value in test [7] was 100%. For the same compound, the “% Control of Rice Blast” value in test [8] is given as 100%.
Take `Clc1ccc([Si](Cn2cncn2)(c2ccc(Cl)cc2)c2ccc(Cl)cc2)cc1` [tris(4-Chlorophenyl)(1H-1,2,4-triazol-1-ylmethyl)silane]: the pest or weed control at 100 ppm in test [1] stood at 100%; in test [2], 0%; in test [3] (setting [9]), 0%; in test [4], 0%; in test [5], 0%; in test [6], 0%. Further, the pest or weed control at 100 ppm in test [7] (Puccinia recondita, 168 h) was determined as 40%; in test [8], 0%.
Take `Cc1ncnn1C[Si](C)(C)c1ccc(-c2ccccc2)cc1` [(1,1'-Biphenyl-4-yl)dimethyl(5-methyl-1H-1,2,4-triazol-1-ylmethyl)silane]: the pest or weed control at 100 ppm was found to be 100% in test [1]; 80% in test [2]; 100% in test [3] (setting [9]); 100% in test [4]; 0% in test [5]; 80% in test [6]. For the same compound, the pest or weed control at 100 ppm amounted to 100% in test [7] (Puccinia recondita, 168 h) and 0% in test [8].
For the compound `C[Si](O)(Cn1cncn1)c1ccc(-c2ccccc2)cc1` (stereo not shown) [(1,1'-Biphenyl-4-yl)hydroxy(methyl)(1H-1,2,4-triazol-1-ylmethyl)silane], the pest or weed control at 100 ppm in test [1] was determined as 100%; in test [2], 0%; in test [3] (setting [9]), 100%; in test [4], 100%; in test [5] it was 0%; in test [6] it was 0%. The pest or weed control at 100 ppm in test [7] (Puccinia recondita, 168 h) worked out at 90%; in test [8] it was 0%.
